According to patent US3954975A, “Salts of ACTH-peptides and processes for their manufacture” (Ciba-Geigy Corporation, priority 1972, dated 1976):
Structures can show the parent of a compound that is named as a salt. Square brackets hold non-standard residues; d marks the D form. Peptide text beside a SMILES is read from it.

Assay: solubility of the fatty acid salt in water
Format: physicochemical
Details: for solubility in water: 24°C
Method: 200 mg of D-Ser^1 -Lys^17,18 -β^1-18 -corticotropin-Lys^18 -amide hexaacetate hydrate are dissolved in 24 ml of ethanol and 1.6 ml of water, and thereafter a solution of 88 mg of lauric acid in 10 ml of ethanol is added. The mixture is evaporated to dryness, the residue is dried overnight in vacuo over sodium hydroxide and is then dissolved in 25 ml of tert. butanol and 5 ml of water whilst warming, the solution is filtered and the filtrate is lyophilized. The residue is again dried in vacuo over sodium hydroxide. 265 mg of lauric acid salt are obtained as a light powder. The solubility of the product in water at 24°C is less than 0.1% (acetic acid salt > 10%).

CSCC[C@H](NC(=O)[C@H](CO)NC(=O)[C@H](Cc1ccc(O)cc1)NC(=O)[C@H](N)CO)C(=O)N[C@@H](CCC(=O)O)C(=O)N[C@@H](Cc1c[nH]cn1)C(=O)N[C@@H](Cc1ccccc1)C(=O)N[C@@H](CCCNC(=N)N)C(=O)N[C@@H](Cc1c[nH]c2ccccc12)C(=O)NCC(=O)N[C@@H](CCCCN)C(=O)N1CCC[C@H]1C(=O)N[C@H](C(=O)NCC(=O)N[C@@H](CCCCN)C(=O)N[C@@H](CCCCN)C(=O)N[C@@H](CCCCN)C(=O)N[C@@H](CCCCN)C(N)=O)C(C)C [Example 1, D-Ser^1 -Lys^17,18 -β^1-18-corticotropin-Lys^18-amide]
solubility in water: less than 0.1%

CSCC[C@H](NC(=O)CNC(=O)[C@H](Cc1ccc(O)cc1)NC(=O)[C@H](N)CO)C(=O)N[C@@H](CCC(=O)O)C(=O)N[C@@H](Cc1c[nH]cn1)C(=O)N[C@@H](Cc1ccccc1)C(=O)N[C@@H](CCCNC(=N)N)C(=O)N[C@@H](Cc1c[nH]c2ccccc12)C(=O)NCC(=O)N[C@@H](CCCCN)C(=O)N1CCC[C@H]1C(=O)N[C@H](C(=O)NCC(=O)N[C@@H](CCCCN)C(=O)N[C@@H](CCCCN)C(=O)N[C@@H](CCCCN)C(=O)N[C@@H](CCCCN)C(N)=O)C(C)C [Example 8, D-Ser^1 -Gly^3 -Lys^17,18 -β^1-18-corticotropin-Lys^18-amide] (H-[dS]YGMEHFRWGKPVGKKKK-NH2)
solubility in water (in words): practically insoluble in water

CSCC[C@H](NC(=O)[C@H](CO)NC(=O)[C@H](Cc1ccc(O)cc1)NC(=O)[C@H](N)CO)C(=O)N[C@@H](CCC(=O)O)C(=O)N[C@@H](Cc1c[nH]cn1)C(=O)N[C@@H](Cc1ccccc1)C(=O)N[C@@H](CCCNC(=N)N)C(=O)N[C@@H](Cc1c[nH]c2ccccc12)C(=O)NCC(=O)N[C@@H](CCCCN)C(=O)N1CCC[C@H]1C(=O)N[C@H](C(=O)NCC(=O)N[C@@H](CCCCN)C(=O)N[C@@H](CCCCN)C(=O)N[C@@H](CCCCN)C(=O)N[C@@H](CCCCN)C(N)=O)C(C)C [acetic acid salt, D-Ser^1 -Lys^17,18 -β^1-18-corticotropin-Lys^18-amide hexaacetate hydrate, reference compound]
solubility in water (hydrate): > 10%

CSCC[C@H](NC(=O)[C@H](CO)NC(=O)[C@H](Cc1ccc(O)cc1)NC(=O)[C@H](N)CO)C(=O)N[C@@H](CCC(=O)O)C(=O)N[C@@H](Cc1c[nH]cn1)C(=O)N[C@@H](Cc1ccccc1)C(=O)N[C@@H](CCCNC(=N)N)C(=O)N[C@@H](Cc1c[nH]c2ccccc12)C(=O)NCC(=O)N[C@@H](CCCCN)C(=O)N1CCC[C@H]1C(=O)N[C@H](C(=O)NCC(=O)N[C@@H](CCCCN)C(=O)N[C@@H](CCCCN)C(=O)N[C@@H](CCCCN)C(=O)N[C@@H](CCCCN)C(=O)N1CCC[C@H]1C(=O)O)C(C)C [Example 6, D-Ser^1 -Lys^17,18 -β^1-19-corticotropin]
solubility in water (in words): sparingly soluble in water

D-Ser^1 -Gly^3 -Lys^17,18 -corticotropin-Lys^18 -amide [Example 9]
solubility in water (in words): cannot be dissolved in water

CSCC[C@H](NC(=O)[C@H](CO)NC(=O)[C@H](Cc1ccc(O)cc1)NC(=O)[C@H](N)CO)C(=O)N[C@@H](CCC(=O)O)C(=O)N[C@@H](Cc1c[nH]cn1)C(=O)N[C@@H](Cc1ccccc1)C(=O)N[C@@H](CCCNC(=N)N)C(=O)N[C@@H](Cc1c[nH]c2ccccc12)C(=O)NCC(=O)N[C@@H](CCCCN)C(=O)N1CCC[C@H]1C(=O)N[C@H](C(=O)NCC(=O)N[C@@H](CCCCN)C(=O)N[C@@H](CCCCN)C(=O)N[C@@H](CCCCN)C(=O)N[C@@H](CCCCN)C(N)=O)C(C)C [Example 4, D-Ser^1 -Lys^17,18 -β^1-18-corticotropin-Lys^18-amide]
solubility in water (in words): water-insoluble
